Measured values published in PubChem BioAssay (NCI).
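1) Cells in 96-well plates. 2) Compound, 48 h, 5 concentrations. 3) Linear interpolation between surrounding doses. 4) Unreached endpoint = highest concentration. TGI denotes the concentration required for complete inhibition of growth.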

What was measured:
Assay in all cases: NCI-60 cell line screen, 48 h
A549 NSCLC = test system: A549 NSCLC
ACHN renal = test system: ACHN renal
CAKI-1 renal = test system: CAKI-1 renal
CCRF-CEM leukemia = test system: CCRF-CEM leukemia
COLO 205 colon = test system: COLO 205 colon
DLD-1 colon = test system: DLD-1 colon
DMS 114 small cell lung = test system: DMS 114 small cell lung
DMS 273 small cell lung = test system: DMS 273 small cell lung
EKVX NSCLC = test system: EKVX NSCLC
HCC-2998 colon = test system: HCC-2998 colon
HCT-116 colon = test system: HCT-116 colon
HCT-15 colon = test system: HCT-15 colon
HL-60(TB) leukemia = test system: HL-60(TB) leukemia
HOP-18 NSCLC = test system: HOP-18 NSCLC
HOP-62 NSCLC = test system: HOP-62 NSCLC
HT29 colon = test system: HT29 colon
IGROV1 ovarian = test system: IGROV1 ovarian
K-562 leukemia = test system: K-562 leukemia
LOX IMVI melanoma = test system: LOX IMVI melanoma
LXFL 529 NSCLC = test system: LXFL 529 NSCLC
M14 melanoma = test system: M14 melanoma
M19-MEL melanoma = test system: M19-MEL melanoma
MALME-3M melanoma = test system: MALME-3M melanoma
MOLT-4 leukemia = test system: MOLT-4 leukemia
NCI-H226 lung = test system: NCI-H226 lung
NCI-H460 lung = test system: NCI-H460 lung
NCI-H522 lung = test system: NCI-H522 lung
OVCAR-4 ovarian = test system: OVCAR-4 ovarian
OVCAR-5 ovarian = test system: OVCAR-5 ovarian
OVCAR-8 ovarian = test system: OVCAR-8 ovarian
RPMI-8226 leukemia = test system: RPMI-8226 leukemia
RXF 393 renal = test system: RXF 393 renal
SF-268 CNS = test system: SF-268 CNS
SF-295 CNS = test system: SF-295 CNS
SF-539 CNS = test system: SF-539 CNS
SK-MEL-2 melanoma = test system: SK-MEL-2 melanoma
SK-MEL-5 melanoma = test system: SK-MEL-5 melanoma
SN12C renal = test system: SN12C renal
SNB-19 CNS = test system: SNB-19 CNS
SNB-75 CNS = test system: SNB-75 CNS
SNB-78 CNS = test system: SNB-78 CNS
SR leukemia = test system: SR leukemia
SW-620 colon = test system: SW-620 colon
TK-10 renal = test system: TK-10 renal
U251 CNS = test system: U251 CNS
UACC-257 melanoma = test system: UACC-257 melanoma
UACC-62 melanoma = test system: UACC-62 melanoma
UO-31 renal = test system: UO-31 renal
XF 498 CNS = test system: XF 498 CNS
786-0 renal = test system: 786-0 renal
A498 renal = test system: A498 renal
HOP-92 NSCLC = test system: HOP-92 NSCLC
KM12 colon = test system: KM12 colon
KM20L2 colon = test system: KM20L2 colon
NCI-H23 lung = test system: NCI-H23 lung
OVCAR-3 ovarian = test system: OVCAR-3 ovarian
SK-MEL-28 melanoma = test system: SK-MEL-28 melanoma
SK-OV-3 ovarian = test system: SK-OV-3 ovarian

## COc1cc(C(C)c2cc3c(cc2OCCO)OCO3)cc(OC)c1OC (centres undefined)
A549 NSCLC
  TGI: > 100 µM
ACHN renal
  TGI: > 100 µM
CAKI-1 renal
  TGI: > 100 µM
CCRF-CEM leukemia
  TGI: > 100 µM
COLO 205 colon
  TGI: 7.47 µM
DLD-1 colon
  TGI: > 100 µM
DMS 114 small cell lung
  TGI: 3.77 µM
DMS 273 small cell lung
  TGI: > 100 µM
EKVX NSCLC
  TGI: > 100 µM
HCC-2998 colon
  TGI: > 100 µM
HCT-116 colon
  TGI: > 100 µM
HCT-15 colon
  TGI: > 100 µM
HL-60(TB) leukemia
  TGI: 2.02 µM
HOP-18 NSCLC
  TGI: > 100 µM
HOP-62 NSCLC
  TGI: > 100 µM
HT29 colon
  TGI: > 100 µM
IGROV1 ovarian
  TGI: > 100 µM
K-562 leukemia
  TGI: > 100 µM
LOX IMVI melanoma
  TGI: > 100 µM
LXFL 529 NSCLC
  TGI: > 100 µM
M14 melanoma
  TGI: > 100 µM
M19-MEL melanoma
  TGI: > 100 µM
MALME-3M melanoma
  TGI: > 100 µM
MOLT-4 leukemia
  TGI: > 100 µM
NCI-H226 lung
  TGI: > 100 µM
NCI-H460 lung
  TGI: > 100 µM
NCI-H522 lung
  TGI: 2.93 µM
OVCAR-4 ovarian
  TGI: > 100 µM
OVCAR-5 ovarian
  TGI: > 100 µM
OVCAR-8 ovarian
  TGI: > 100 µM
RPMI-8226 leukemia
  TGI: > 100 µM
RXF 393 renal
  TGI: 3.43 µM
SF-268 CNS
  TGI: > 100 µM
SF-295 CNS
  TGI: 2.24 µM
SF-539 CNS
  TGI: 4.81 µM
SK-MEL-2 melanoma
  TGI: > 100 µM
SK-MEL-5 melanoma
  TGI: > 100 µM
SN12C renal
  TGI: > 100 µM
SNB-19 CNS
  TGI: > 100 µM
SNB-75 CNS
  TGI: 4.34 µM
SNB-78 CNS
  TGI: > 100 µM
SR leukemia
  TGI: 0.932 µM
SW-620 colon
  TGI: > 100 µM
TK-10 renal
  TGI: > 100 µM
U251 CNS
  TGI: > 100 µM
UACC-257 melanoma
  TGI: > 100 µM
UACC-62 melanoma
  TGI: > 100 µM
UO-31 renal
  TGI: > 100 µM
XF 498 CNS
  TGI: 5.33 µM

## O=C1CC(S(=O)(=O)O)C=C1Nc1cccc(Cl)c1 (centres undefined)
786-0 renal
  TGI: > 100 µM
A498 renal
  TGI: > 100 µM
A549 NSCLC
  TGI: > 100 µM
ACHN renal
  TGI: > 100 µM
CAKI-1 renal
  TGI: > 100 µM
CCRF-CEM leukemia
  TGI: > 100 µM
COLO 205 colon
  TGI: > 100 µM
DLD-1 colon
  TGI: > 100 µM
DMS 273 small cell lung
  TGI: > 100 µM
EKVX NSCLC
  TGI: > 100 µM
HCC-2998 colon
  TGI: > 100 µM
HCT-116 colon
  TGI: > 100 µM
HL-60(TB) leukemia
  TGI: > 100 µM
HOP-18 NSCLC
  TGI: > 100 µM
HOP-62 NSCLC
  TGI: > 100 µM
HOP-92 NSCLC
  TGI: > 100 µM
HT29 colon
  TGI: > 100 µM
IGROV1 ovarian
  TGI: > 100 µM
K-562 leukemia
  TGI: > 100 µM
KM12 colon
  TGI: > 100 µM
KM20L2 colon
  TGI: > 100 µM
LOX IMVI melanoma
  TGI: > 100 µM
LXFL 529 NSCLC
  TGI: > 100 µM
M14 melanoma
  TGI: > 100 µM
M19-MEL melanoma
  TGI: > 100 µM
MALME-3M melanoma
  TGI: > 100 µM
MOLT-4 leukemia
  TGI: > 100 µM
NCI-H226 lung
  TGI: > 100 µM
NCI-H23 lung
  TGI: > 100 µM
NCI-H460 lung
  TGI: > 100 µM
NCI-H522 lung
  TGI: > 100 µM
OVCAR-3 ovarian
  TGI: > 100 µM
OVCAR-4 ovarian
  TGI: > 100 µM
OVCAR-5 ovarian
  TGI: > 100 µM
OVCAR-8 ovarian
  TGI: > 100 µM
RXF 393 renal
  TGI: > 100 µM
SF-268 CNS
  TGI: > 100 µM
SF-295 CNS
  TGI: > 100 µM
SF-539 CNS
  TGI: > 100 µM
SK-MEL-2 melanoma
  TGI: > 100 µM
SK-MEL-28 melanoma
  TGI: > 100 µM
SK-MEL-5 melanoma
  TGI: > 100 µM
SK-OV-3 ovarian
  TGI: > 100 µM
SN12C renal
  TGI: > 100 µM
SNB-19 CNS
  TGI: > 100 µM
SNB-75 CNS
  TGI: > 100 µM
SNB-78 CNS
  TGI: > 100 µM
SR leukemia
  TGI: > 100 µM
SW-620 colon
  TGI: > 100 µM
TK-10 renal
  TGI: > 100 µM
U251 CNS
  TGI: > 100 µM
UACC-257 melanoma
  TGI: > 100 µM
UACC-62 melanoma
  TGI: > 100 µM
UO-31 renal
  TGI: > 100 µM
XF 498 CNS
  TGI: > 100 µM
